Data as given in article PMC3183052, “Immunoprotectivity of HLA-A2 CTL Peptides Derived from Respiratory Syncytial Virus Fusion Protein in HLA-A2 Transgenic Mouse” (PLoS ONE, 2011).

Key:
[1] = tested on: splenocytes from HLA-A*0201 transgenic C57BL/6 mice; assay: IFN-γ ELISPOT of splenocytes restimulated with peptide; format: cell-based, mouse
Procedure, shortened: (§1)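 HLA-A*0201 transgenic C57BL/6 mice primed and boosted intranasally 20 days apart with 1×10^7 pfu rAd-F0 or 1×10^4 live RSV B1; splenocytes taken 10 days post-boost. Splenocytes restimulated 48 h at 37°C with 2 µg individual RSV F 9-mer peptides; spots counted, expressed per 5×10^5 splenocytes.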

[2] = tested on: splenocytes from HLA-A*0201 transgenic C57BL/6 mice; assay: IL-2 ELISPOT of splenocytes restimulated with peptide; format: cell-based, mouse
Procedure, shortened: as §1

[3] = tested on: lung eosinophils; assay: Eosinophil infiltration into the lungs (anti-MBP immunohistochemistry); format: in vivo, HLA-A*0201 transgenic C57BL/6 mice; conditions: day 4 post RSV challenge; anti-MBP staining, 20 fields at 200×; six mice per group
Description: Whole lungs were excised from the mice, fixed in 10% formalin (Sigma-Aldrich) solution overnight and embedded in paraffin (Thermo Fisher Scientific) for sectioning. The sections were stained with rat monoclonal anti-major basic protein (MBP) antibody (1∶500 dilution, gifted from Dr. James J. Lee, Mayo Clinic, AZ, USA) followed by the appropriate secondary antibodies. Twenty-bright field microscopy pictures (Nikon DXM1200 CCD digital camera attached with ACT-1 imaging capture software) from each stained section were taken at 200× magnifications and the number of eosinophils was counted. The mean of eosinophil count from each section was calculated.
Figure 6 Eosinophil infiltration into the lungs of peptide-immunized transgenic mice upon RSV challenge. Immunohistochemical analysis of lung sections with anti-major basic protein antibody specific for eosinophils followed by the HRP-conjugated anti-rat antibody was performed. (A) Pictures from the section of normal mouse lung (a), or vehicle- (b), peptide 3- (c), 13- (d), 14- (e) and 23- (f) immunized mouse lung section. (B) Quantitative representation of eosinophil count per section of peptide- or vehicle-immunized HLA-transgenic mice at day 4 post RSV challenge. Twenty bright field pictures from each lung mesenchymal region were examined and the number of eosinophils was counted under 200× magnification. […]

[4] = splenocytes of HLA-Tg B6 mice primed and boosted i.n. with 10^4 pfu RSV-B1, restimulated with 2 µg peptide, representative of two experiments, five mice per group
[5] = splenocytes of HLA-Tg B6 mice primed and boosted i.n. with 10^7 pfu rAd-F0, restimulated with 2 µg peptide, representative of two experiments, five mice per group
[6] = splenocytes of rAd-F0- or RSV B1-primed and boosted HLA-Tg B6 mice, high = over 100 spots, moderate = over 50 spots

YMLTNSELL [peptide 14, HLA-A*0201-restricted 9-mer synthetic peptide from F protein of RSV-B1 strain]
IFN-γ ELISPOT, RSV [1, 4]: 97 cytokine-secreting cells per 5×10^5 splenocytes | IFN-γ ELISPOT, rAd-F0 [1, 5]: 200 cytokine-secreting cells per 5×10^5 splenocytes | IFN-γ level in restimulated splenocytes (ELISPOT, text grading) [1, 6]: over 100 spots | IL-2 ELISPOT, RSV [2, 4]: 34.5 cytokine-secreting cells per 5×10^5 splenocytes | IL-2 ELISPOT, rAd-F0 [2, 5]: 200 cytokine-secreting cells per 5×10^5 splenocytes | IL-2 level in restimulated splenocytes (ELISPOT, text grading) [2, 6]: over 100 spots | eosinophil numbers in the lungs vs vehicle-immunized mice [3]: comparable eosinophil numbers
